# Source: patent publication US9695163B2, “Thiazole orexin receptor antagonists” (MERCK SHARP & DOHME CORP., priority 2013, dated 2017)
# Columns and labels:
# [1] = molecular target: human orexin-2 receptor (hOX2R) (Homo sapiens (Human), UniProt O43614); assay: FLIPR Ca2+ Flux Assay, CHO cells expressing human orexin-2 receptor; format: cell-based; conditions: agonist Ala-6,12 human orexin-A 70 pM
# Method: Briefly, for intracellular calcium measurements, Chinese hamster ovary (CHO) cells expressing the orexin-1 receptor (e.g., rat or human) or the orexin-2 receptor (e.g., rat or human), are grown in Iscove's modified DMEM containing 2 mM L-glutamine, […], 1% hypoxanthine-thymidine supplement, 100 U/ml penicillin, 100 μg/ml streptomycin and 10% heat-inactivated fetal calf serum (FCS). The cells are seeded at approximately 20,000 cells per well into 384-well clear bottom sterile plates coated with poly-D-lysine. The seeded plates are incubated overnight at 37° C. and 5% CO2. Human ala-6,12 orexin-A can be used as the agonist and prepared as a 1 mM stock solution in 1% bovine serum albumin (BSA) and diluted in assay buffer (HBSS containing 20 mM HEPES, 0.1% BSA and 2.5 mM probenecid, pH7.4) for use in the assay at a final concentration of 70 pM. Test compounds are prepared as 10 mM stock solution in DMSO, then diluted in 384-well plates, first in DMSO, then in assay buffer. On the day of the assay, cells are washed 3 times with 100 μl assay buffer and then incubated for 60 minutes (37° C., 5% CO2) in 60 μl assay buffer containing 1 μM Fluo-4 AM ester, 0.02% pluronic acid, and 1% BSA. The dye loading solution is then aspirated and cells are washed 3 times with 100 μl assay buffer. 30 μl of that same buffer is left in each well. Within the Fluorescent Imaging Plate Reader (FLIPR, Molecular Devices), test compounds are added to the plate in a volume of 25 μl, incubated for 5 minutes, and then 25 μl of agonist is added. Fluorescence is measured for each well at 1 second intervals for 5 minutes, and the height of each fluorescence peak is compared to the height of the fluorescence peak induced by 70 pM of agonist ala-6,12 orexin-A with buffer in place of test compound. IC50 value for the test compound is determined to be the concentration of compound needed to inhibit 50% of the agonist response. Alternatively, compound potency can be assessed using a radioligand binding assay (described in Bergman et. al., Bioorg. Med. Chem. Lett. 2008, 18:1425-1430) in which the inhibition constant (Ki) is determined in membranes prepared from CHO cells expressing either the OX1 or OX2 receptor. The intrinsic orexin receptor antagonist activity of a compound of the present invention may be determined by these assays. […]
# [2] = molecular target: human orexin-1 receptor (hOX1R) (Homo sapiens (Human), UniProt O43613); assay: FLIPR Ca2+ Flux Assay, CHO cells expressing human orexin-1 receptor; format: cell-based; conditions: agonist Ala-6,12 human orexin-A 70 pM
# Description: The utility of the compounds in accordance with the present invention as orexin receptor OX1R and/or OX2R antagonists may be readily determined without undue experimentation by methodology well known in the art, including the “FLIPR Ca^2+ Flux Assay” (Okumura et al., Biochem. Biophys. Res. Comm. 2001, 280:976-981). Briefly, for intracellular calcium measurements, Chinese hamster ovary (CHO) cells expressing the orexin-1 receptor (e.g., rat or human) or the orexin-2 receptor (e.g., rat or human), are grown in Iscove's modified DMEM containing 2 mM L-glutamine, […], 1% hypoxanthine-thymidine supplement, 100 U/ml penicillin, 100 μg/ml streptomycin and 10% heat-inactivated fetal calf serum (FCS). The cells are seeded at approximately 20,000 cells per well into 384-well clear bottom sterile plates coated with poly-D-lysine. The seeded plates are incubated overnight at 37° C. and 5% CO2. Human ala-6,12 orexin-A can be used as the agonist and prepared as a 1 mM stock solution in 1% bovine serum albumin (BSA) and diluted in assay buffer (HBSS containing 20 mM HEPES, 0.1% BSA and 2.5 mM probenecid, pH7.4) for use in the assay at a final concentration of 70 pM. Test compounds are prepared as 10 mM stock solution in DMSO, then diluted in 384-well plates, first in DMSO, then in assay buffer. On the day of the assay, cells are washed 3 times with 100 μl assay buffer and then incubated for 60 minutes (37° C., 5% CO2) in 60 μl assay buffer containing 1 μM Fluo-4 AM ester, 0.02% pluronic acid, and 1% BSA. The dye loading solution is then aspirated and cells are washed 3 times with 100 μl assay buffer. 30 μl of that same buffer is left in each well. Within the Fluorescent Imaging Plate Reader (FLIPR, Molecular Devices), test compounds are added to the plate in a volume of 25 μl, incubated for 5 minutes, and then 25 μl of agonist is added. Fluorescence is measured for each well at 1 second intervals for 5 minutes, and the height of each fluorescence peak is compared to the height of the fluorescence peak induced by 70 pM of agonist ala-6,12 orexin-A with buffer in place of test compound. IC50 value for the test compound is determined to be the concentration of compound needed to inhibit 50% of the agonist response. Alternatively, compound potency can be assessed using a radioligand binding assay (described in Bergman et. al., Bioorg. Med. Chem. Lett. 2008, 18:1425-1430) in which the inhibition constant (Ki) is determined in membranes prepared from CHO cells expressing either the OX1 or OX2 receptor. The intrinsic orexin receptor antagonist activity of a compound of the present invention may be determined by these assays.
# human orexin-1 receptor (hOX1R), sequence (O43613 whole entry): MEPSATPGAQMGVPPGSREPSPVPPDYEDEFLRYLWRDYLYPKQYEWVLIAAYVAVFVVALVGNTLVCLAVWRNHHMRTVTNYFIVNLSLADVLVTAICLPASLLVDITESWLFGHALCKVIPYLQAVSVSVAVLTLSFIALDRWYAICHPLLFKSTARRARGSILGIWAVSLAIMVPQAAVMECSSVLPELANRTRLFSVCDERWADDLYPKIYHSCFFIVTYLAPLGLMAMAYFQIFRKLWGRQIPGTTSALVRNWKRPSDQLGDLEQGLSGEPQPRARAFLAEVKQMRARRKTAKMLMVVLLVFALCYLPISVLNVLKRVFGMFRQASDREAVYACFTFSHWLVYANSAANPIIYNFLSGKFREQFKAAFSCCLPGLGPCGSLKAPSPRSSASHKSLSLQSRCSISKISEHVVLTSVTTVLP
# human orexin-2 receptor (hOX2R), sequence (O43614 whole entry): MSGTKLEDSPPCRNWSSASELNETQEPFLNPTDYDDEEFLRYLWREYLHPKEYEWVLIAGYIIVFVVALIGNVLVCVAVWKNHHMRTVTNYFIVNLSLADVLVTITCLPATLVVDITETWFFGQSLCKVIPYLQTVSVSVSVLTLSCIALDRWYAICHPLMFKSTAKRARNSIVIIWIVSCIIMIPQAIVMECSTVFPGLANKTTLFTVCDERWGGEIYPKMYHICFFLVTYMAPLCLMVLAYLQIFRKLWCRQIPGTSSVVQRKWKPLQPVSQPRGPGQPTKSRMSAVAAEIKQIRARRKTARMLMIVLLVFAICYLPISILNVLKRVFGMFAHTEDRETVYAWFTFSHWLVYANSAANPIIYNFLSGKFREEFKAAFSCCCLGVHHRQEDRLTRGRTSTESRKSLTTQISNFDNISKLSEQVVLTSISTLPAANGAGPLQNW
Molecule,IC50 [1] [nM],IC50 [2] [nM]
"C[C@@H]1CC[C@@H](c2cnc(C(C)(C)O)s2)CN1C(=O)c1ccccc1-n1nccn1 [Example 4, (2-(2H-1,2,3-triazol-2-yl)phenyl)((2R,5R)-5-(2-(2-hydroxypropan-2-yl)thiazol-5-yl)-2-methylpiperidin-1-yl)methanone]",50,> 10000
"C[C@@H]1CC[C@@H](c2csc(C(C)(C)O)n2)CN1C(=O)c1cscc1-c1ncccn1 [Example 32, ((2R,5R)-5-(2-(2-hydroxypropan-2-yl)thiazol-4-yl)-2-methylpiperidin-1-yl)(4-(pyrimidin-2-yl)thiophen-3-yl)methanone]",130,> 10000
"Cc1sc([C@@H]2CC[C@@H](C)N(C(=O)c3ccccc3-n3nccn3)C2)nc1C(C)(C)O [Example 19, (2-(2H-1,2,3-Triazol-2-yl)phenyl)((2R,5R)-5-(4-(2-hydroxypropan-2-yl)-5-methylthiazol-2-yl)-2-methylpiperidin-1-yl)methanone]",14,330
"C[C@@H]1CC[C@H](c2ncc(C(C)(C)O)s2)CN1C(=O)c1ccccc1-n1nccn1 [Example 3, (2-(2H-1,2,3-Triazol-2-yl)phenyl)((2R,5S)-5-(5-(2-hydroxypropan-2-yl)thiazol-2-yl)-2-methylpiperidin-1-yl)methanone]",2650,> 10000
"CCOC(=O)c1cnc([C@@H]2CC[C@@H](C)N(C(=O)c3ccccc3-n3nccn3)C2)s1 [Example 1, Ethyl 2-((3R,6R)-1-(2-(2H-1,2,3-triazol-2-yl)benzoyl)-6-methylpiperidin-3-yl)thiazole-5-carboxylate]",1510,> 10000
"Cc1sc([C@@H]2CC[C@@H](C)N(C(=O)c3cscc3-c3ncccn3)C2)nc1C(C)(C)O [Example 28, ((2R,5R)-5-(4-(2-Hydroxypropan-2-yl)-5-methylthiazol-2-yl)-2-methylpiperidin-1-yl)(4-(pyrimidin-2-yl)thiophen-3-yl)methanone]",29,900
"C[C@@H]1CC[C@@H](c2csc(C(C)(C)O)n2)CN1C(=O)c1ccsc1-n1nccn1 [Example 37, (2-(2H-1,2,3-Triazol-2-yl)thiophen-3-yl)((2R,5R)-5-(2-(2-hydroxypropan-2-yl)thiazol-4-yl)-2-methylpiperidin-1-yl)methanone]",16,7200
C[C@@H]1CC[C@@H](c2nc([C@H](O)C(F)F)cs2)CN1C(=O)c1ccccc1-n1nccn1 [Example 9],9.4,520
"C[C@@H]1CC[C@@H](c2nc([C@@H](O)C(F)(F)F)cs2)CN1C(=O)c1ccccc1-n1nccn1 [Example 7, (2-(2H-1,2,3-triazol-2-yl)phenyl)((2R,5R)-2-methyl-5-(4-((R)-2,2,2-trifluoro-1-hydroxyethyl)thiazol-2-yl)piperidin-1-yl)methanone]",15,360
"COC(=O)c1ccccc1C(=O)N1C[C@H](c2nc(C(C)(C)O)cs2)CC[C@H]1C [Example 12, Methyl 2-((2R,5R)-5-(4-(2-hydroxypropan-2-yl)thiazol-2-yl)-2-methylpiperidine-1-carbonyl)benzoate]",44,> 10000
"Cc1sc([C@@H]2CC[C@@H](C)N(C(=O)c3ccccc3-c3ncccn3)C2)nc1C(C)(C)O [Example 23, ((2R,5R)-5-(4-(2-Hydroxypropan-2-yl)-5-methylthiazol-2-yl)-2-methylpiperidin-1-yl)(2-(pyrimidin-2-yl)phenyl)methanone]",27,600
"((2R,5R)-5-(4-(2-Hydroxypropan-2-yl)-5- methylthiazol-2-yl)-2-methylpiperidin-1- yl)(2-(pyrimidin-2-yl)thiophen-3- yl)methanone [Example 27]",87,700
"C[C@@H]1CC[C@@H](c2csc(C(C)(C)O)n2)CN1C(=O)c1ccsc1-c1ncccn1 [Example 31, ((2R,5R)-5-(2-(2-hydroxypropan-2-yl)thiazol-4-yl)-2-methylpiperidin-1-yl)(2-(pyrimidin-2-yl)thiophen-3-yl)methanone]",90,> 10000
"C[C@@H]1CC[C@@H](c2nc(C(C)(C)O)cs2)CN1C(=O)c1cscc1-n1nccn1 [Example 15, (4-(2H-1,2,3-Triazol-2-yl)thiophen-3-yl)((2R,5R)-5-(4-(2-hydroxypropan-2-yl)thiazol-2-yl)-2-methylpiperidin-1-yl)methanone]",16,> 10000
"C[C@@H]1CC[C@@H](c2nc(C(C)(C)O)cs2)CN1C(=O)c1ccccc1-n1ncnn1 [Example 14, (2-(2H-Tetrazol-2-yl)phenyl)((2R,5R)-5-(4-(2-hydroxypropan-2-yl)thiazol-2-yl)-2-methylpiperidin-1-yl)methanone]",21,> 10000
"C[C@@H]1CC[C@@H](c2nc(C(C)(C)O)cs2)CN1C(=O)c1cscc1-c1ncccn1 [Example 16, ((2R,5R)-5-(4-(2-hydroxypropan-2-yl)thiazol-2-yl)-2-methylpiperidin-1-yl)(4-(pyrimidin-2-yl)thiophen-3-yl)methanone]",25,1000
"C[C@@H]1CC[C@@H](c2nc([C@H](O)C(F)(F)F)cs2)CN1C(=O)c1ccccc1-n1nccn1 [Example 6, (2-(2H-1,2,3-triazol-2-yl)phenyl)((2R,5R)-2-methyl-5-(4-((S)-2,2,2-trifluoro-1-hydroxyethyl)thiazol-2-yl)piperidin-1-yl)methanone]",165,10000
"C[C@@H]1CC[C@@H](c2nc(C(C)(C)O)cs2)CN1C(=O)c1ccccc1-c1ncccn1 [Example 17, ((2R,5R)-5-(4-(2-Hydroxypropan-2-yl)thiazol-2-yl)-2-methylpiperidin-1-yl)(2-(pyrimidin-2-yl)phenyl)methanone]",29,5470
